{"source": "patent US12227482B2", "about": "“Compounds and compositions for the treatment of cancer” (The Regents of the University of California, priority 2016, dated 2025)", "type_in_all_cases": "cell-based", "conditions_in_all_cases": "72 hours treatment, cell survival by CellTiter-Glo, 2% fetal bovine serum", "key": {"LOX cells": {"system": "LOX cells", "assay": "Cell viability (CellTiter-Glo ATP content) in LOX cells", "outline": "(§1)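 Cells plated at 5,000 per well in antibiotic-free RPMI with 2% FBS, treated next day in triplicate with increasing compound doses (final DMSO 0.5%) for 72 hours. Viability read as ATP content by CellTiter-Glo luminescence; percent survival relative to vehicle control set as 100%.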"}, "MelJuSo cells": {"system": "MelJuSo cells", "assay": "Cell viability (CellTiter-Glo ATP content) in MelJuSo cells", "outline": "as §1"}, "A549 cells": {"system": "A549 cells", "assay": "Cell viability (CellTiter-Glo ATP content) in A549 cells", "outline": "as §1"}}}
{"smiles": "COC(=O)CNC(=O)C1(C)C(c2ccoc2)C(c2ccc(F)cc2F)=NN1c1ccc(F)cc1F", "note": "(stereo not drawn) [Compound 131, methyl 2-(1,3-bis(2,4-difluorophenyl)-4-(furan-3-yl)-5-methyl-4,5-dihydro-1H-pyrazole-5-carboxamido)acetate]", "values": [{"measurement": "IC50", "setting": "LOX cells; LOX, 72 h", "value": "0.5 to 1", "unit": "µM"}, {"measurement": "IC50", "setting": "MelJuSo cells; Homo sapiens, MEL-JUSO", "value": "0.25 to 0.5", "unit": "µM"}, {"measurement": "IC50", "setting": "A549 cells; Homo sapiens, A549, 72 h", "value": "0.5 to 1", "unit": "µM"}]}
{"smiles": "COC(=O)[C@H](C)NC(=O)C1(C)C(c2ccoc2)C(c2ccc(F)cc2F)=NN1c1ccc(F)cc1F", "note": "(stereo partly drawn) [Compound 132, (2S)-methyl 2-(1,3-bis(2,4-difluorophenyl)-4-(furan-3-yl)-5-methyl-4,5-dihydro-1H-pyrazole-5-carboxamido)propanoate]", "values": [{"measurement": "IC50", "setting": "LOX cells; LOX, 72 h", "value": "> 2", "unit": "µM"}, {"measurement": "IC50", "setting": "MelJuSo cells; Homo sapiens, MEL-JUSO", "value": "> 2", "unit": "µM"}, {"measurement": "IC50", "setting": "A549 cells; Homo sapiens, A549, 72 h", "value": "> 2", "unit": "µM"}]}
{"smiles": "CC(C)(CO)CCCNC(=O)C1(C)C(c2ccc(Cl)o2)C(c2ccc(F)cc2F)=NN1c1ccc(F)cc1F", "note": "(stereo not drawn) [Compound 133, 4-(5-chlorofuran-2-yl)-1,3-bis(2,4-difluorophenyl)-N-(5-hydroxy-4,4-dimethylpentyl)-5-methyl-4,5-dihydro-1H-pyrazole-5-carboxamide]", "values": [{"measurement": "IC50", "setting": "LOX cells; LOX, 72 h", "value": "< 0.25", "unit": "µM"}, {"measurement": "IC50", "setting": "MelJuSo cells; Homo sapiens, MEL-JUSO", "value": "< 0.25", "unit": "µM"}, {"measurement": "IC50", "setting": "A549 cells; Homo sapiens, A549, 72 h", "value": "< 0.25", "unit": "µM"}]}
{"smiles": "COC(=O)CNC(=O)C1(C)C(c2ccc(Cl)o2)C(c2ccc(F)cc2F)=NN1c1ccc(F)cc1F", "note": "(stereo not drawn) [Compound 134, methyl 2-(4-(5-chlorofuran-2-yl)-1,3-bis(2,4-difluorophenyl)-5-methyl-4,5-dihydro-1H-pyrazole-5-carboxamido)acetate]", "values": [{"measurement": "IC50", "setting": "LOX cells", "value": "< 0.25", "unit": "µM"}, {"measurement": "IC50", "setting": "MelJuSo cells", "value": "< 0.25", "unit": "µM"}, {"measurement": "IC50", "setting": "A549 cells", "value": "< 0.25", "unit": "µM"}]}
{"smiles": "CN1CCOC(CNC(=O)C2(C)C(c3ccc(Cl)o3)C(c3ccc(F)cc3F)=NN2c2ccc(F)cc2F)C1", "note": "(stereo not drawn) [Compound 135, 4-(5-chlorofuran-2-yl)-1,3-bis(2,4-difluorophenyl)-5-methyl-N-((4-methylmorpholin-2-yl)methyl)-4,5-dihydro-1H-pyrazole-5-carboxamide]", "values": [{"measurement": "IC50", "setting": "LOX cells; LOX, 72 h", "value": "< 0.25", "unit": "µM"}, {"measurement": "IC50", "setting": "MelJuSo cells; Homo sapiens, MEL-JUSO", "value": "< 0.25", "unit": "µM"}, {"measurement": "IC50", "setting": "A549 cells; Homo sapiens, A549, 72 h", "value": "< 0.25", "unit": "µM"}]}
{"smiles": "CC(C)(CO)CCCNC(=O)C1(C)C(c2ccc(F)cc2F)=NN(c2ccc(F)cc2F)C1c1ccc(Cl)o1", "note": "(stereo not drawn) [Compound 136, 5-(5-chlorofuran-2-yl)-1,3-bis(2,4-difluorophenyl)-N-(5-hydroxy-4,4-dimethylpentyl)-4-methyl-4,5-dihydro-1H-pyrazole-4-carboxamide]", "values": [{"measurement": "IC50", "setting": "LOX cells; LOX, 72 h", "value": "> 2", "unit": "µM"}, {"measurement": "IC50", "setting": "MelJuSo cells; Homo sapiens, MEL-JUSO", "value": "1 to 2", "unit": "µM"}, {"measurement": "IC50", "setting": "A549 cells; Homo sapiens, A549, 72 h", "value": "> 2", "unit": "µM"}]}
{"smiles": "COC(=O)CNC(=O)C1(C)C(c2ccc(F)cc2F)=NN(c2ccc(F)cc2F)C1c1ccc(Cl)o1", "note": "(stereo not drawn) [Compound 137, methyl 2-(5-(5-chlorofuran-2-yl)-1,3-bis(2,4-difluorophenyl)-4-methyl-4,5-dihydro-1H-pyrazole-4-carboxamido)acetate]", "values": [{"measurement": "IC50", "setting": "LOX cells; LOX, 72 h", "value": "> 2", "unit": "µM"}, {"measurement": "IC50", "setting": "MelJuSo cells; Homo sapiens, MEL-JUSO", "value": "0.5 to 1", "unit": "µM"}, {"measurement": "IC50", "setting": "A549 cells; Homo sapiens, A549, 72 h", "value": "> 2", "unit": "µM"}]}
{"smiles": "CC(C)(C)OC(=O)N1CCOC(CNC(=O)C2(C)C(c3ccc(Cl)o3)C(c3ccc(F)cc3F)=NN2c2ccc(F)cc2F)C1", "note": "(stereo not drawn) [Compound 138, tert-butyl 2-((4-(5-chlorofuran-2-yl)-1,3-bis(2,4-difluorophenyl)-5-methyl-4,5-dihydro-1H-pyrazole-5-carboxamido)methyl)morpholine-4-carboxylate]", "values": [{"measurement": "IC50", "setting": "LOX cells; LOX, 72 h", "value": "> 2", "unit": "µM"}, {"measurement": "IC50", "setting": "MelJuSo cells; Homo sapiens, MEL-JUSO", "value": "> 2", "unit": "µM"}, {"measurement": "IC50", "setting": "A549 cells; Homo sapiens, A549, 72 h", "value": "> 2", "unit": "µM"}]}
